Experimental findings from patent publication US9845292B2 (Max-Planck-Gesellschaft zur Förderung der Wissenschaften …, priority 2013, dated 2017) are described below.

One assay deals with T1, FKBP52 (Homo sapiens, UniProt Q02790).
T1 construct: Purified FK1-domains of FKBP51WT (4.5 nM) with F4 (3 nM), FKBP52WT (400 nM) with F2 (20 nM); implied by Ni-NTA purification) (N); made in house; host or cells: E. coli BL21(DE3)pLysS
T1 sequence (Q02790 50-138 limits assumed): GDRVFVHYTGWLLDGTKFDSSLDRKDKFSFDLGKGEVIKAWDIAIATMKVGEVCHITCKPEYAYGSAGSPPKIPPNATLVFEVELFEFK
The assay can be described thus: Fluorescence polarization binding assay, FK1-domain of FKBP52WT with tracer F2 (selectivity FKBP51 vs. FKBP52). As to conditions: selectivity factor over FKBP52. The protocol:
(§1) The target protein was also diluted in this assay buffer at double the highest concentration required for the final sample. This protein stock was used for a 1:1 serial dilution.
(§2) The inventive compound was dissolved in DMSO to reach a 100-times concentrated stock solution. This was used for a 1:1 serial dilution in DMSO.
(§3) For FKBP12, −51, and −52 the binding assays were performed in duplicates in the plate format.
(§4) The competition curves were analyzed by using SigmaPlot9. Data were fitted to a four parameter logistic curve to deduce the IC50 values. […] A=(Amax−Amin)/[L]t×(([L]t×((2×((Klig+Kcomp+[L]t+[I]t−[R]t)^2−3×(Kcomp×([L]t−[R]t)+Klig×([I]t−[R]t)+Klig×Kcomp))^0.5×COS(ARCCOS((−2×(Klig+Kcomp+[L]t+[I]t−[R]t)^3+9×(Klig+Kcomp+[L]t+[I]t−[R]t)×(Kcomp×([L]t−[R]t)+Klig×([I]t−[R]t)+Klig×Kcomp)−27×(−1×Klig×Kcomp×[R]t))/(2×((((Klig+Kcomp+[L]t+[I]t−[R]t)^2−3×(Kcomp×([L]t−[R]t)+Klig×([I]t−[R]t)+Klig×Kcomp))^3)^0.5)))/3))−(Klig+Kcomp+[L]t+[I]t−[R]t)))/((3×Klig)+((2×((Klig+Kcomp+[L]t+[I]t−[R]t)^2−3×(Kcomp×([L]t−[R]t)+Klig×([I]t−[R]t)+Klig×Kcomp))^0.5×COS(ARCCOS((−2×(Klig+Kcomp+[L]t+[I]t−[R]t)^3+9×(Klig+Kcomp+[L]t+[I]t−[R]t)×(Kcomp×([L]t−[R]t)+Klig×([I]t−[R]t)+Klig×Kcomp)−27×(−1×Klig×Kcomp×[R]t))/(2×((((Klig+Kcomp+[L]t+[I]t−[R]t)^2−3×(Kcomp×([L]t−[R]t)+Klig×([I]t−[R]t)+Klig×Kcomp))^3)^0.5)))/3))−(Klig+Kcomp+[L]t+[I]t−[R]t))))+Amin
(§5) In this equation Klig and Kcomp stand for the Kd values of the used tracer or competing inhibitor, [I]t is referring to the total concentration of the titrated inhibitor.
The Selectivity of the Compounds was Classified by Ki(FKBP51)/Ki(FKBP52)
(§6) Inhibition constants were measured in a fluorescence polarization binding assay by titrating the compounds.
On the technique in general: In fluorescence polarisation assays a small probe gives low polarisation when free and higher when bound to something large.

For another assay, the target named is T2, FKBP51 (Homo sapiens, UniProt Q13451).
T2 sequence (Q13451 42-130 limits assumed): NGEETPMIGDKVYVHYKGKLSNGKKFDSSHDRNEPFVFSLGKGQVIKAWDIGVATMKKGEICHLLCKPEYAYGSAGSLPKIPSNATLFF
The assay can be described thus: Fluorescence polarization binding assay, FK1-domain of FKBP51WT with tracer F4. Set-up: Purified FK1-domains of FKBP51WT (4.5 nM) with F4 (3 nM), FKBP52WT (400 nM) with F2 (20 nM); made in house; host or cells: E. coli BL21(DE3)pLysS. As to conditions: read-out: Affinity(Ki) for FKBP51. How it is done:
as §1, §2, §3, §4, §5, §6

Setting [1] is: FKBP52WT (400 nM) with F2 (20 nM), A series.
[2] abbreviates: FK1-domain of FKBP51WT (4.5 nM) with F4 (3 nM), A series.

Molecules are shown by their SMILES. Where two headings read alike, the source gives them in different places.

Turning to `COc1ccc(CCC(OC(=O)[C@@H]2CCCCN2C(=O)[C@H](NC(=O)c2ccccc2)C2CCCCC2)c2cccc(OCC(=O)O)c2)cc1OC` (stereo partly drawn) [Compound A23, 2-(3-(1-(((2S)-1-(2-benzamido-2-cyclohexylacetyl)piperidine-2-carbonyl)oxy)-3-(3,4-dimethoxyphenyl)propyl)phenoxy)acetic acid], the “Ki(FKBP51)/Ki(FKBP52)” value at FKBP52 (setting [1]) is “+ (>5 +)”. Further, on FKBP51 (setting [2]), the Ki fell in the range of 10 to 50 µM.

`COc1ccc(CCC(OC(=O)[C@@H]2CCCCN2C(=O)C(NC(=O)c2ccccc2O)C2CCCCC2)c2cccc(OCC(=O)O)c2)cc1OC` (stereo partly drawn) [Compound A24, 2-(3-(1-(((2S)-1-(2-cyclohexyl-2-(2-hydroxybenzamido)acetyl)piperidine-2-carbonyl)oxy)-3-(3,4-dimethoxyphenyl)propyl)phenoxy)acetic acid]: the “Ki(FKBP51)/Ki(FKBP52)” value at FKBP52 (setting [1]) was “+ (>5 +)”. Besides, at FKBP51 (setting [2]), the Ki was in the range of 10 to 50 µM.

Turning to `COc1ccc(CCC(OC(=O)[C@@H]2CCCCN2C(=O)C(NC(=O)c2ccccn2)C2CCCCC2)c2cccc(OCC(=O)O)c2)cc1OC` (stereo partly drawn) [Compound A25, 2-(3-(1-(((2S)-1-(2-cyclohexyl-2-(picolinamido)acetyl)piperidine-2-carbonyl)oxy)-3-(3,4-dimethoxyphenyl)propyl)phenoxy) acetic acid], the “Ki(FKBP51)/Ki(FKBP52)” value at FKBP52 (setting [1]) is reported as “+ (>5 +)”. Moreover, the Ki on FKBP51 (setting [2]) lay in the range of 10 to 50 µM.

For the molecule `COc1ccc(CCC(OC(=O)[C@@H]2CCCCN2C(=O)C(NC(=O)C2CCCCC2)C2CCCCC2)c2cccc(OCC(=O)O)c2)cc1OC` (stereo partly drawn) [Compound A26, 2-(3-(1-(((2S)-1-(2-(cyclohexanecarboxamido)-2-cyclohexylacetyl)piperidine-2-carbonyl)oxy)-3-(3,4-dimethoxyphenyl)propyl)phenoxy)acetic acid], the “Ki(FKBP51)/Ki(FKBP52)” value on FKBP52 (setting [1]) is on record as “+ (>5 +)”. The inhibitory constant (Ki) at FKBP51 (setting [2]) lay in the range of 10 to 50 µM.

Take `COc1ccc(CCC(OC(=O)[C@@H]2CCCCN2C(=O)C(NC(=O)C2N=CN=N2)C2CCCCC2)c2cccc(OCC(=O)O)c2)cc1OC` (stereo partly drawn) [Compound A27, 2-(3-(1-(((2S)-1-(2-cyclohexyl-2-(3H-1,2,4-triazole-3-carboxamido)acetyl)piperidine-2-carbonyl)oxy)-3-(3,4-dimethoxyphenyl)propyl)phenoxy)acetic acid]: the “Ki(FKBP51)/Ki(FKBP52)” value on FKBP52 (setting [1]) is recorded as “+ (>5 +)”. In addition, the Ki at FKBP51 (setting [2]) was 10 to 50 µM.

Consider `COc1ccc(CCC(OC(=O)[C@@H]2CCCCN2C(=O)C(NC(=O)c2cc(Cl)cc(Cl)c2)C2CCCCC2)c2cccc(OCC(=O)O)c2)cc1OC` (stereo partly drawn) [Compound A28, 2-(3-(1-(((2S)-1-(2-cyclohexyl-2-(3,5-dichlorobenzamido)acetyl)piperidine-2-carbonyl)oxy)-3-(3,4-dimethoxyphenyl)propyl)phenoxy)acetic acid], for which the “Ki(FKBP51)/Ki(FKBP52)” value on FKBP52 (setting [1]) is “+ (>5 +)”. Besides, at FKBP51 (setting [2]), the Ki lay in the range of 10 to 50 µM.

`COc1ccc(CC[C@@H](OC(=O)[C@@H]2CCCCN2C(=O)[C@H](c2cccc(F)c2)C2CCCCC2)c2cccc(OCC(=O)O)c2)cc1OC` [Compound A36, 2-(3-((R)-1-(((S)-1-((S)-2-cyclohexyl-2-(3-fluorophenyl)acetyl)piperidine-2-carbonyl)oxy)-3-(3,4-dimethoxyphenyl)propyl)phenoxy)acetic acid]: the “Ki(FKBP51)/Ki(FKBP52)” value on FKBP52 (setting [1]) is on record as “+++ (>500 +++)”. Also, the Ki on FKBP51 (setting [2]) fell in the range of 1 to 10 µM.

`COc1cc([C@@H](C(=O)N2CCCC[C@H]2C(=O)N[C@@H](C)C(N)=O)C2CCCCC2)cc(OC)c1OC` [Compound B01, (S)-N-((S)-1-amino-1-oxopropan-2-yl)-1-((S)-2-cyclohexyl-2-(3,4,5-trimethoxyphenyl)acetyl)piperidine-2-carboxamide]: on FKBP52 (compounds B01-C25), the “Ki(FKBP51)/Ki(FKBP52)” value is on record as “++ (>50 ++)”. Besides, the Ki on FKBP51 (compounds B01-C25) was in the range of 1 to 10 µM.

Turning to `COc1cc([C@@H](C(=O)N2CCCC[C@H]2C(=O)N[C@H](C)C(N)=O)C2CCCCC2)cc(OC)c1OC` [Compound B02, (S)-N-((R)-1-amino-1-oxopropan-2-yl)-1-((S)-2-cyclohexyl-2-(3,4,5-trimethoxyphenyl)acetyl)piperidine-2-carboxamide], at FKBP52 (compounds B01-C25), the “Ki(FKBP51)/Ki(FKBP52)” value is “++ (>50 ++)”. Moreover, the Ki at FKBP51 (compounds B01-C25) was in the range of 1 to 10 µM.

By Ki is commonly meant the dissociation constant of the complex between target and ligand, obtained from inhibition or displacement.
